For 24 compounds, IC50 results are on record in ChEMBL document CHEMBL1153102, “Synthesis and antiproliferative activity of pyrrolo[3,2-b]pyridine derivatives against melanoma” (Bioorg Med Chem Lett, 2010).

SMILES strings stand for the structures.

Assay [1] can be described thus: Cytotoxicity against human A375P cells by MTT assay. It is filed as functional, cell-based. A general note: Tetrazolium assays rely on reduction of a dye to a coloured formazan, in cell work by metabolically active cells.
Assay [2] concerns HS27. Kind of assay: Cytotoxicity against human HS27 cells by MTT assay. The class given is cell-based.

By IC50 is commonly meant the concentration that inhibits the measured activity by half. For the compound `COC(=O)c1ccc2c(ccn2-c2ccc(NC(=O)c3cccc(C(F)(F)F)c3)cc2)n1`, the IC50 is 9.5 µM in assay [1] and 9.8 µM in assay [2].

Regarding `COC(=O)c1ccc2c(ccn2-c2cccc(NC(=O)Nc3ccc(Cl)c(C(F)(F)F)c3)c2)n1`, the results for the IC50 in assay [1] and in assay [2] were 9.5 µM and over 10 µM, respectively.

For the compound `COC(=O)c1ccc2c(ccn2-c2ccc(NC(=O)Nc3cccc(Cl)c3Cl)cc2)n1`, the IC50 in assay [1] was 6.4 µM; in assay [2], over 10 µM.

For the compound `O=C(Nc1ccc(-n2ccc3nc(C(=O)NCc4ccccc4)ccc32)cc1)c1ccc(N2CCOCC2)c(C(F)(F)F)c1`, the IC50 came to 0.9 µM in assay [1] and 2.6 µM in assay [2].

Regarding `COC(=O)c1ccc2c(ccn2-c2ccc(NC(=O)c3cc(N4CCOCC4)cc(C(F)(F)F)c3)cc2)n1`, the IC50 in assay [1] and in assay [2] was over 10 µM throughout.

In the case of `NC(=O)c1ccc2c(ccn2-c2ccc(NC(=O)c3ccc(Cl)c(C(F)(F)F)c3)cc2)n1`, the IC50 was 8.9 µM in assay [1] and over 10 µM in assay [2].

Take `O=C(Nc1ccc(-n2ccc3nc(C(=O)NCc4ccccc4)ccc32)cc1)c1cc(N2CCOCC2)cc(C(F)(F)F)c1`: the IC50 in assay [1] and in assay [2] was over 10 µM in each case.

With `COC(=O)c1ccc2c(ccn2-c2cccc(NC(=O)Nc3cccc(C(F)(F)F)c3)c2)n1`, the IC50 in assay [1] and in assay [2] was over 10 µM in each case.

In the case of `O=C(Nc1ccc(-n2ccc3nc(C(=O)NCc4ccccc4)ccc32)cc1)Nc1cccc(C(F)(F)F)c1`, the values for the IC50 in assay [1] and in assay [2] were 7.9 µM and over 10 µM, respectively.

`NC(=O)c1ccc2c(ccn2-c2ccc(NC(=O)Nc3ccc(Cl)c(C(F)(F)F)c3)cc2)n1`: the 50% inhibitory concentration (IC50) was 9.9 µM in assay [1] and over 10 µM in assay [2].

Regarding `COC(=O)c1ccc2c(ccn2-c2ccc(NC(=O)c3ccc(N4CCOCC4)c(C(F)(F)F)c3)cc2)n1`, the IC50 is 9.8 µM in assay [1] and over 10 µM in assay [2].

In the case of `O=C(Nc1ccc(-n2ccc3nc(C(=O)NCc4ccccc4)ccc32)cc1)Nc1ccc(Cl)c(C(F)(F)F)c1`, the IC50 came to 1.1 µM in assay [1] and 3 µM in assay [2].

Consider `COC(=O)c1ccc2c(ccn2-c2cccc(NC(=O)c3cccc(C(F)(F)F)c3)c2)n1`, for which the IC50 in assay [1] and in assay [2] was over 10 µM in each case.

As for `NC(=O)c1ccc2c(ccn2-c2ccc(NC(=O)Nc3ccc(Cl)c(Cl)c3)cc2)n1`, the results for the IC50 in assay [1] and in assay [2] were 3.2 µM and 6.6 µM, respectively.

Take `COC(=O)c1ccc2c(ccn2-c2cccc(NC(=O)c3ccc(Cl)c(C(F)(F)F)c3)c2)n1`: the IC50 in assay [1] and in assay [2] was over 10 µM throughout.

Take `COC(=O)c1ccc2c(ccn2-c2ccc(NC(=O)c3ccc(Cl)c(C(F)(F)F)c3)cc2)n1`: the IC50 is 3 µM in assay [1] and 2.9 µM in assay [2].

Regarding `O=C(Nc1ccc(-n2ccc3nc(C(=O)NCc4ccccc4)ccc32)cc1)Nc1cccc(Cl)c1Cl`, the IC50 in assay [1] and in assay [2] was over 10 µM throughout.

Turning to `COC(=O)c1ccc2c(ccn2-c2ccc(NC(=O)Nc3ccc(Cl)c(C(F)(F)F)c3)cc2)n1`, the IC50 came to 3.6 µM in assay [1] and 8.2 µM in assay [2].

As to `O=C(Nc1ccc(-n2ccc3nc(C(=O)NCc4ccccc4)ccc32)cc1)c1cccc(C(F)(F)F)c1`, the IC50 is 3 µM in assay [1] and over 10 µM in assay [2].

As for `CNC(=O)c1cc(Oc2ccc(NC(=O)Nc3ccc(Cl)c(C(F)(F)F)c3)cc2)ccn1` [SORAFENIB], in assay [1], inhibition was half-maximal at 5.6 µM (IC50).

In the case of `COC(=O)c1ccc2c(ccn2-c2ccc(NC(=O)Nc3ccc(Cl)c(Cl)c3)cc2)n1`, the IC50 in assay [1] came out at 3.8 µM; in assay [2] it was 2.8 µM.

For `NC(=O)c1ccc2c(ccn2-c2ccc(NC(=O)c3cccc(C(F)(F)F)c3)cc2)n1`, the half-maximal inhibitory concentration (IC50) in assay [1] and in assay [2] was over 10 µM each time.

Consider `O=C(Nc1ccc(-n2ccc3nc(C(=O)NCc4ccccc4)ccc32)cc1)c1ccc(Cl)c(C(F)(F)F)c1`, for which the IC50 in assay [1] worked out at 0.7 µM; in assay [2], 1.5 µM.

For `NC(=O)c1ccc2c(ccn2-c2ccc(NC(=O)Nc3cccc(Cl)c3Cl)cc2)n1`, the values for the IC50 in assay [1] and in assay [2] were 4.6 µM and 9.8 µM, respectively.
